Assay [1] concerns the target T1, ALK2 (Mus musculus, UniProt P37172).
T1 construct: The C2C12 cell line was selected for the measurement of ALK2 activity using BMP6 as the agonist; host or cells: C2C12
T1 sequence (P37172 21-509): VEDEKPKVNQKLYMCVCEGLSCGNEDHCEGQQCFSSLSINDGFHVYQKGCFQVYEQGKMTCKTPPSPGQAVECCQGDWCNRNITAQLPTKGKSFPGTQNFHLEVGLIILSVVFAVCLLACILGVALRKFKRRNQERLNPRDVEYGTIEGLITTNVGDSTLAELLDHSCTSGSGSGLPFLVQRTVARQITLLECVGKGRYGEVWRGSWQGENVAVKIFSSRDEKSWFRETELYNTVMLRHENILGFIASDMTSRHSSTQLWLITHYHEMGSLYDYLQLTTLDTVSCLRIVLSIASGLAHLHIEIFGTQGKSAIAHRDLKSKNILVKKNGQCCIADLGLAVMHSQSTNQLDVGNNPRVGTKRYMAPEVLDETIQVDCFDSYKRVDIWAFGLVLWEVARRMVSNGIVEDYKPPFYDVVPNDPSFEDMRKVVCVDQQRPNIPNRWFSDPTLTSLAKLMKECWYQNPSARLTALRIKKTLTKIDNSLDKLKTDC
Nature of the assay: HTRF pSMAD1 cell-based ALK2 assay (C2C12 cells, BMP6 as agonist). The conditions noted are these: cell-based assay, BMP6; read-out: Cell IC50 BMP6. A digest of the protocol: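 Phospho-SMAD1 HTRF readout, detection incubated overnight at room temperature. Before that: starved cells in 0.1% FBS for 4 h, 30 min compound pretreatment, then 30 min agonist, BMP6 on C2C12 or BMP9 on BAOEC.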
A general note: TR-FRET usually uses a lanthanide donor and a delayed reading to cut background.

Assay [2] is described as follows: Cell-based assay, TGFb1 (Cell IC50).
Assay [3] addresses T2, ALK2 (Homo sapiens, UniProt Q04771).
T2 sequence (Q04771 21-509): T1 sequence (P37172 21-509) with V1M, Q10P, I121L, E162D, S310P
Put plainly: TR-FRET enzymatic ALK kinase assay, ALK2.
Method: (§1) Briefly, the ALKs enzymatic assay was initiated by dispense 2.5 μl enzyme in 1× kinase reaction buffer. The assay plate was then added with compounds followed by incubation at room temperature for 10 minutes. Then 2.5 μl/well substrate was added.

Another assay addresses ALK1 (Homo sapiens, UniProt P37023). Put plainly: TR-FRET enzymatic ALK kinase assay, ALK1.
The next assay addresses ALK6 (Homo sapiens, UniProt O00238). Nature of the assay: TR-FRET enzymatic ALK kinase assay, ALK6.
For another assay, the target named is T3, ALK5 (Homo sapiens, UniProt P36897).
T3 sequence (P36897 34-503): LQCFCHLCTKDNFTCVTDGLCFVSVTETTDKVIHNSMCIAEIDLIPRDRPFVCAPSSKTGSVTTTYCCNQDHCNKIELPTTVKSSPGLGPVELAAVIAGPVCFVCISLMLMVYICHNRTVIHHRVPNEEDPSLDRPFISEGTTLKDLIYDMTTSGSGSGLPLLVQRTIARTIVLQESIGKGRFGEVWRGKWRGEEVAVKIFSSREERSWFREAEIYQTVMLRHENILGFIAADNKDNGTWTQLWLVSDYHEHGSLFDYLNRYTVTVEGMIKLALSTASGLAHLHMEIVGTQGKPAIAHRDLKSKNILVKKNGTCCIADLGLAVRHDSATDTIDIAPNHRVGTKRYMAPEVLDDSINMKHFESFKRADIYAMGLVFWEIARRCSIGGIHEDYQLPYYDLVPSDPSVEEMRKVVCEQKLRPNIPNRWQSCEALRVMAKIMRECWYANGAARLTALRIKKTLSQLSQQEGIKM
Put plainly: TR-FRET enzymatic ALK kinase assay, ALK5.

In a further assay the target is T4, ALK4 (Homo sapiens, UniProt P36896).
T4 sequence (P36896 24-505): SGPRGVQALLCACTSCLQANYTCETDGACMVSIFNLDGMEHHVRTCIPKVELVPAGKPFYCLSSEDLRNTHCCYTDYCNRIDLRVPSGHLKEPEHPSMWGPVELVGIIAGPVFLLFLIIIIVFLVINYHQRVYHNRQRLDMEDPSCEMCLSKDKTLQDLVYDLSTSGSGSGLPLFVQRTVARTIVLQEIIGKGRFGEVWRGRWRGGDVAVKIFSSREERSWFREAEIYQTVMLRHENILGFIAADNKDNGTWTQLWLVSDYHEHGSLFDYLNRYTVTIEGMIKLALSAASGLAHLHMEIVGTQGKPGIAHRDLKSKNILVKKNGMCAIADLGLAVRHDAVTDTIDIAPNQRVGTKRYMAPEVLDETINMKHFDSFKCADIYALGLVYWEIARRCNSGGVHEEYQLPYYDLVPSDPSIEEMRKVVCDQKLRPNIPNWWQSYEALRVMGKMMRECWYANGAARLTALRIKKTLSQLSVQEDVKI
Put plainly: TR-FRET enzymatic ALK kinase assay, ALK4.

The target of the next assay is ALK3 (Homo sapiens, UniProt P36894). Put plainly: TR-FRET enzymatic ALK kinase assay, ALK3.
ALK3, sequence (P36894 24-532): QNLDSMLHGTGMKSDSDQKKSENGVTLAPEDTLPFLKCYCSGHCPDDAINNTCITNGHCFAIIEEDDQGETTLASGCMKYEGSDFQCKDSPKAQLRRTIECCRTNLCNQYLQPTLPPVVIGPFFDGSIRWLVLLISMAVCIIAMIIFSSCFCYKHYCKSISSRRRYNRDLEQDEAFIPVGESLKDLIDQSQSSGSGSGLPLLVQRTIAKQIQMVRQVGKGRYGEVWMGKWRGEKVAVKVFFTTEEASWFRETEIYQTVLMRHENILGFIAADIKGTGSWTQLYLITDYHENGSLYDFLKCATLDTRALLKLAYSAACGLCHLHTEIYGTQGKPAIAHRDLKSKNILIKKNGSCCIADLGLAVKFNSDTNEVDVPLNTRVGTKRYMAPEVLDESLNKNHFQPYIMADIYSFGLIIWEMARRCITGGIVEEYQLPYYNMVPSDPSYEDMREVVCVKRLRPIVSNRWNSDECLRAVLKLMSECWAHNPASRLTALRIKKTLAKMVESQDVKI

What is called pIC50 is the negative decadic logarithm of the IC50, by convention in mol/L.

Where a chain is given by its changes, count along the chain named. pIC50: −log10 of the molar value.

ALK1, sequence (P37023 22-503): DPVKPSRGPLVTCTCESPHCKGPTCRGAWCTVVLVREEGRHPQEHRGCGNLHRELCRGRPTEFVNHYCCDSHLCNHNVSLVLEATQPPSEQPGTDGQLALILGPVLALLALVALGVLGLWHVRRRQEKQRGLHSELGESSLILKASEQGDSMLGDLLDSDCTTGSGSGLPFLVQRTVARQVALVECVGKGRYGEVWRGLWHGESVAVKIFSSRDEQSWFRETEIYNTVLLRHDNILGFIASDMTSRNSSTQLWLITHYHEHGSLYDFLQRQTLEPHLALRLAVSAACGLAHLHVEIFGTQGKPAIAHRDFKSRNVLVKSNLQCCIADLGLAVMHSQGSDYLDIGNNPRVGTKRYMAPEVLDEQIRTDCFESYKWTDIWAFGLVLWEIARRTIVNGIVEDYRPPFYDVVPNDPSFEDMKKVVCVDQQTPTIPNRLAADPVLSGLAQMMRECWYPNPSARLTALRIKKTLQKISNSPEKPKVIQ
ALK6, sequence (O00238 14-502): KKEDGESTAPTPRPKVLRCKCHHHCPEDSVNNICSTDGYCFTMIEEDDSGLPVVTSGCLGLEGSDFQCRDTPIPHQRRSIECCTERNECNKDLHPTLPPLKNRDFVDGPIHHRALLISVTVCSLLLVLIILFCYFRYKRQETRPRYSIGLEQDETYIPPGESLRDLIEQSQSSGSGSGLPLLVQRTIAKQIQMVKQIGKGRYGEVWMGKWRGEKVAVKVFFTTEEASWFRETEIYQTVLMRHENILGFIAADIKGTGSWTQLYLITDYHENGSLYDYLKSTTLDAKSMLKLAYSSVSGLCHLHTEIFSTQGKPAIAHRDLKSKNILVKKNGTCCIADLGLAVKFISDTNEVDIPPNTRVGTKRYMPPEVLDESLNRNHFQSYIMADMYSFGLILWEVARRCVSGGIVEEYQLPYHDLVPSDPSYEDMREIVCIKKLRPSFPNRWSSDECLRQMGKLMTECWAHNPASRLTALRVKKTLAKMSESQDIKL
Method for ALK1: as §1
Method for ALK3: as §1
Method for ALK4: as §1
Method for ALK5: Six ALK kinase enzyme assays were developed for determination of compound activities on ALK1, ALK2, ALK3, ALK4, ALK5 and ALK6.
as §1
Method for ALK6: as §1

Turning to `c1ccc(-c2cnn3cc(-c4ccc(CCN5CCCCC5)cc4)cnc23)cc1` [Compound 88, 3-phenyl-6-(4-(2-(piperidin-1-yl)ethyl)phenyl)pyrazolo[1,5-a]pyrimidine], the pIC50 is 5.23 on ALK2 [1]; 7.24 in assay [2]; 6.38 against ALK2 [3]; 5.89 at ALK1; less than 5.00 against ALK6; less than 5.00 on ALK5. The negative logarithm of the IC50 (pIC50) on ALK4 and on ALK3 was less than 5.00 each time.

As to `c1cc(-c2cc[nH]n2)cc(-c2cnn3cc(-c4ccc(CCN5CCCCC5)cc4)cnc23)c1` [Compound 90, 3-(3-(1H-pyrazol-3-yl)phenyl)-6-(4-(2-(piperidin-1-yl)ethyl)phenyl)pyrazolo[1,5-a]pyrimidine], the pIC50 at ALK2 [1] was 6.40; in assay [2], 4.82; at ALK2 [3] it was 7.85; on ALK1, 7.17; at ALK6, less than 5.00; at ALK5, less than 5.00. Moreover, the negative logarithm of the IC50 (pIC50) against ALK4 is 6.06; against ALK3 it was less than 5.00.

Turning to `Fc1ccc(-c2cnn3cc(-c4ccc(CCN5CCCCC5)cc4)cnc23)cc1-c1nnn[nH]1` [Compound 78, 3-(4-fluoro-3-(1H-tetrazol-5-yl)phenyl)-6-(4-(2-(piperidin-1-yl)ethyl)phenyl)pyrazolo[1,5-a]pyrimidine], the pIC50 at ALK2 [1] was 4.15; in assay [2], 4.00; against ALK2 [3], 7.80; against ALK1, 6.82; on ALK6, 6.62; at ALK5, less than 5.00. The results for the pIC50 at ALK4 and on ALK3 were less than 5.00 and 6.72, respectively.

For `CN1CCC(c2ccc(-c3cnc4c(-c5cccc(S(C)(=O)=O)c5)cnn4c3)cc2)CC1` [Compound 91, 6-(4-(1-methylpiperidin-4-yl)phenyl)-3-(3-(methylsulfonyl)phenyl)pyrazolo[1,5-a]pyrimidine], the pIC50 at ALK2 [1] is 6.75; in assay [2] it was 4.23; on ALK2 [3], 7.28; against ALK1 it was 6.66; against ALK6 it was less than 5.00; on ALK5, less than 5.00. Also, the pIC50 against ALK4 was less than 5.00; at ALK3, 5.49.

For the compound `CN1CCC(c2ccc(-c3cnc4c(-c5ccc(S(N)(=O)=O)c6ccccc56)cnn4c3)cc2)CC1` [Compound 80, 4-(6-(4-(1-methylpiperidin-4-yl)phenyl)pyrazolo[1,5-a]pyrimidin-3-yl)naphthalene-1-sulfonamide], the pIC50 on ALK2 [1] was 5.73; in assay [2], less than 4.00; at ALK2 [3], 7.46; on ALK1, 6.80; at ALK6, less than 5.00; against ALK5, less than 5.00. Moreover, the pIC50 against ALK4 and against ALK3 was less than 5.00 in each case.

Consider `C[C@@H]1CNC[C@H](C)N1c1ccc(-c2cnc3c(-c4ccc(C#N)c5ccccc45)cnn3c2)cc1` [Compound 19, 4-(6-(4-((2R,6S)-2,6-dimethylpiperazin-1-yl)phenyl)pyrazolo[1,5-a]pyrimidin-3-yl)-1-naphthonitrile], for which the pIC50 on ALK2 [1] was 7.36; in assay [2], 5.35; against ALK2 [3] it was 7.03; on ALK1, 6.24; against ALK6, 5.01; at ALK5, 3.82. Moreover, the pIC50 against ALK4 was 5.32; at ALK3 it was 5.96.

With `CC(C)(CN1CCCCC1)Oc1ccc(-c2cnc3c(-c4ccc(C(N)=O)c5ccccc45)cnn3c2)cc1` [Compound 17, 4-(6-(4-((2-methyl-1-(piperidin-1-yl)propan-2-yl)oxy)phenyl)pyrazolo[1,5-a]pyrimidin-3-yl)-1-naphthamide], the pIC50 was 7.80 at ALK2 [1]; 6.36 in assay [2]; 8.30 against ALK2 [3]; 7.96 at ALK1; 5.91 against ALK6; 5.07 against ALK5. Besides, the pIC50 against ALK4 was 5.69; on ALK3 it was 7.21.

With `NS(=O)(=O)c1cccc(-c2cnn3cc(-c4ccc(CCN5CCCCC5)cc4)cnc23)c1` [Compound 75, 3-(6-(4-(2-(piperidin-1-yl)ethyl)phenyl)pyrazolo[1,5-a]pyrimidin-3-yl)benzenesulfonamide], the negative-log IC50 (pIC50) on ALK2 [1] is 6.33; in assay [2], 4.87; on ALK2 [3], 6.92; against ALK1 it was 6.24; on ALK6, less than 5.00; against ALK5, less than 5.00. Moreover, the results for the pIC50 against ALK4 and against ALK3 were less than 5.00 and 5.20, respectively.

With `CC(C)(CN1CCCCC1)Oc1ccc(-c2cnc3c(-c4cccc(S(N)(=O)=O)c4)cnn3c2)cc1` [Compound 96, 3-(6-(4-((2-methyl-1-(piperidin-1-yl)propan-2-yl)oxy)phenyl)pyrazolo[1,5-a]pyrimidin-3-yl)benzenesulfonamide], the pIC50 was 6.82 on ALK2 [1]; 6.04 in assay [2]; 7.18 at ALK2 [3]; 6.62 against ALK1; less than 5.00 against ALK6; less than 5.00 against ALK5. Besides, the figures for the pIC50 on ALK4 and at ALK3 were 5.22 and 5.31, respectively.

Regarding `CN1CCC(c2ccc(-c3cnc4c(-c5cccc(C(C)(C)O)c5)cnn4c3)cc2)CC1` [Compound 92, 2-(3-(6-(4-(1-methylpiperidin-4-yl)phenyl)pyrazolo[1,5-a]pyrimidin-3-yl)phenyl)propan-2-ol], the negative logarithm of the IC50 (pIC50) at ALK2 [1] is 6.58; in assay [2], 4.77; against ALK2 [3], 7.59; against ALK1, 7.04; at ALK6, less than 5.00; at ALK5, less than 5.00. The pIC50 against ALK4 was less than 5.00; on ALK3, 5.80.

For `NS(=O)(=O)c1ccc(-c2cnn3cc(-c4ccc(OC5(CN6CCCCC6)COC5)cc4)cnc23)c2ccccc12` [Compound 87, 4-(6-(4-((3-(piperidin-1-ylmethyl)oxetan-3-yl)oxy)phenyl)pyrazolo[1,5-a]pyrimidin-3-yl)naphthalene-1-sulfonamide], the negative logarithm of the IC50 (pIC50) is 6.32 on ALK2 [1]; 4.52 in assay [2]; 7.64 at ALK2 [3]; 7.08 against ALK1; less than 5.00 at ALK6; less than 5.00 on ALK5. Besides, the pIC50 against ALK4 is less than 5.00; against ALK3, 5.74.

The record behind these values is patent US10513521B2, “Compositions and methods for inhibiting BMP” (The Brigham and Women's Hospital, Inc., priority 2014, dated 2019).
